Reference: publication PMC12454603 (Archives of Toxicology, 2025)

What was measured:
[1] = tested on: ES-D3 cells; test: ES-D3 cell cytotoxicity (WST-1 viability) assay of the mEST; format: cell-based, mouse; details: 1-day and 5-day cytotoxicity, ES-D3 cells
Experimental: The viability of the ES-D3 cells following 1-day and 5-day exposure to the test compounds was measured with the WST-1 assay. To this end, 100 µL cell suspension was seeded in the inner 60 wells of 96-well plates at a concentration of 2 × 10^5 cells/ml for 1-day exposure and 10^4 cells/ml for 5-day exposure and incubated at 37 °C with 5% CO2 for 24 h. After 24 h, 100 µL exposure medium with 0.25% DMSO and the required concentration of the test compounds, solvent control, and positive control were added to the cells in triplicate. The plates were incubated at 37 °C with 5% CO2 for 1 day or 5 days until measurement. After the exposure period, 20 µL of the cell proliferation reagent WST-1 were added to each well that contained cells and the cells were incubated for 3 h at 37 °C with 5% CO2. The absorbance of each plate was measured at 440 nm and 620 nm with a SpectraMax iD3 (San Jose, USA).
The concentration–response data for the test compounds in the mEST were presented in three curves including curves for 1-day cytotoxicity, 5-day cytotoxicity, and 10-day differentiation assays. The obtained curves were fitted using the inhibition equation log (inhibitor) vs response (three parameters) option using GraphPad Prism software 5.0 (California, USA).

[2] = In vivo kinetic study, intravenous 50 mg/kg bw, blood concentrations; details: rat, 50 mg/kg bw parent PAH
Experimental: Six male Sprague–Dawley rats at the age of 8–9 weeks weighing 286-305g/rat were obtained from Charles River Inc (Beijing, China). The rats were maintained in plastic cages in two groups of three in a temperature-controlled (ranging from 20 °C to 25 °C) and humidity-controlled (ranging from 40–70%) environment on a 12-h light–dark cycle. The animal bedding was corncob and used after autoclaving. The bedding and the cages were changed twice a week. The number of animals was restricted to 3 per dose group and control blood samples were collected before dosing. Feeding and living conditions followed the Chinese Laboratory Animal-Requirement of environment and housing facilities (GB14925-2010). The present rat study was approved by Institutional Animal Care and Use Committee (IACUC-BF202305006).
All animals were fasted 8 h before intravenous injection and resumed feed supply 4 h after dosing.
After administration, blood samples (0.1–0.2 ml blood volume) were taken from the medial canthus venous plexus of the animal and anticoagulated with sodium heparin. Prior to orbital venipuncture and blood collection, the animals were anesthetized by CO2 inhalation (70% CO2 + 30% O2). Blood was sampled at 1 min, 0.5, 1, 2, 4, 8, 12, 24, 32, 48, and 72 h post-dosing. After collection, blood samples were frozen and were stored at −20 °C until analysis. All animals were euthanized with 100% CO2 after the experiment.
Aliquots of 100 µL of blood samples were transferred into centrifuge tubes and 700 µL sodium acetate buffer (0.1M, pH 5.0) and 6 µL β-glucuronidase-arylsulfatase were added. The samples were incubated for 1 h at 37 °C and subsequently extracted twice with 800 µL ethyl acetate saturated with water. The samples were shaken for 30 min and centrifuged 5 min at 2000 g (4 °C). The upper organic phase was transferred to a centrifuge tube and evaporated under a gentle stream of nitrogen at 40 ℃ in a water bath. The residues were re-dissolved with 200 µL ascorbic acid:methanol (1:100). […]

Cc1ccc2c(c1)cc1ccc3c(O)ccc4ccc2c1c43 [3-OH-8-MBaP, 3-Hydroxy-8-methyl-benzo[a]pyrene]
Cytotoxicity accompanying the inhibition of differentiation [1]: without accompanying cytotoxicity
Observed in vivo Cmax relative to the model prediction (lower) [2]: 3.4 fold
Observed in vivo blood concentration compared with that of 3-OHBaP [2]: comparable
